Measured values: PubChem BioAssay (NCI)
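Tested at 5 concentrations; 48 h exposure; 96-well plates; endpoints linearly interpolated, else capped at highest concentration. Here, GI50 denotes the concentration required for 50% inhibition of growth. TGI denotes the concentration required for complete inhibition of growth.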

Columns and labels:
Test in all cases: NCI-60 cell line screen, 48 h
K-562 leukemia = test system: K-562 leukemia
HT29 colon = test system: HT29 colon
NCI-H460 lung = test system: NCI-H460 lung
SNB-75 CNS = test system: SNB-75 CNS
M14 melanoma = test system: M14 melanoma
HCC-2998 colon = test system: HCC-2998 colon
RXF 393 renal = test system: RXF 393 renal
DU-145 prostate = test system: DU-145 prostate
EKVX NSCLC = test system: EKVX NSCLC
CCRF-CEM leukemia = test system: CCRF-CEM leukemia
MALME-3M melanoma = test system: MALME-3M melanoma
SF-268 CNS = test system: SF-268 CNS
COLO 205 colon = test system: COLO 205 colon
MDA-MB-231 breast = test system: MDA-MB-231 breast
TK-10 renal = test system: TK-10 renal
ACHN renal = test system: ACHN renal
SK-OV-3 ovarian = test system: SK-OV-3 ovarian
A498 renal = test system: A498 renal
786-0 renal = test system: 786-0 renal
BT-549 breast = test system: BT-549 breast
NCI/ADR-RES ovarian = test system: NCI/ADR-RES ovarian
SK-MEL-5 melanoma = test system: SK-MEL-5 melanoma
T-47D breast = test system: T-47D breast
CAKI-1 renal = test system: CAKI-1 renal
SK-MEL-2 melanoma = test system: SK-MEL-2 melanoma
A549 NSCLC = test system: A549 NSCLC
HS 578T breast = test system: HS 578T breast
OVCAR-4 ovarian = test system: OVCAR-4 ovarian
NCI-H522 lung = test system: NCI-H522 lung
U251 CNS = test system: U251 CNS
MOLT-4 leukemia = test system: MOLT-4 leukemia
KM12 colon = test system: KM12 colon
IGROV1 ovarian = test system: IGROV1 ovarian
HOP-92 NSCLC = test system: HOP-92 NSCLC
OVCAR-5 ovarian = test system: OVCAR-5 ovarian
OVCAR-3 ovarian = test system: OVCAR-3 ovarian
SK-MEL-28 melanoma = test system: SK-MEL-28 melanoma
RPMI-8226 leukemia = test system: RPMI-8226 leukemia
SF-295 CNS = test system: SF-295 CNS
SW-620 colon = test system: SW-620 colon
HL-60(TB) leukemia = test system: HL-60(TB) leukemia
UO-31 renal = test system: UO-31 renal
SN12C renal = test system: SN12C renal
SF-539 CNS = test system: SF-539 CNS
MDA-MB-435 = test system: MDA-MB-435
UACC-257 melanoma = test system: UACC-257 melanoma
NCI-H226 lung = test system: NCI-H226 lung
PC-3 prostate = test system: PC-3 prostate
UACC-62 melanoma = test system: UACC-62 melanoma
SR leukemia = test system: SR leukemia
SNB-19 CNS = test system: SNB-19 CNS
HCT-15 colon = test system: HCT-15 colon
HOP-62 NSCLC = test system: HOP-62 NSCLC
HCT-116 colon = test system: HCT-116 colon
MCF7 breast = test system: MCF7 breast

## COC(=O)c1cccc(NC2=C(Cl)C(=O)c3nc(C)ccc3C2=O)c1
K-562 leukemia
  GI50: 0.976 µM
  TGI: 3.94 µM
HT29 colon
  GI50: 2.32 µM
  TGI: 6.09 µM
NCI-H460 lung
  GI50: 18.5 µM
  TGI: 41.5 µM
SNB-75 CNS
  GI50: 13.2 µM
  TGI: 26.2 µM
M14 melanoma
  GI50: 1.84 µM
  TGI: 3.42 µM
HCC-2998 colon
  GI50: 2.21 µM
  TGI: 4.8 µM
RXF 393 renal
  GI50: 1.57 µM
  TGI: 2.94 µM
DU-145 prostate
  GI50: 1.86 µM
  TGI: 3.39 µM
EKVX NSCLC
  GI50: 1.77 µM
  TGI: 3.6 µM
CCRF-CEM leukemia
  GI50: 2.01 µM
  TGI: 5.48 µM
MALME-3M melanoma
  GI50: 1.95 µM
  TGI: 3.76 µM
SF-268 CNS
  GI50: 2.76 µM
  TGI: 9.59 µM
COLO 205 colon
  GI50: 1.77 µM
  TGI: 3.76 µM
MDA-MB-231 breast
  GI50: 2.15 µM
  TGI: 5.08 µM
TK-10 renal
  GI50: 1.78 µM
  TGI: 3.19 µM
ACHN renal
  GI50: 1.78 µM
  TGI: 3.4 µM
SK-OV-3 ovarian
  GI50: 12.5 µM
  TGI: 25.2 µM
A498 renal
  GI50: 12 µM
  TGI: 24.6 µM
786-0 renal
  GI50: 1.86 µM
  TGI: 3.66 µM
BT-549 breast
  GI50: 1.68 µM
  TGI: 3.09 µM
NCI/ADR-RES ovarian
  GI50: 2.25 µM
  TGI: 6.28 µM
SK-MEL-5 melanoma
  GI50: 1.8 µM
  TGI: 3.34 µM
T-47D breast
  GI50: 2.04 µM
  TGI: 5.02 µM
CAKI-1 renal
  GI50: 1.71 µM
  TGI: 3.28 µM
SK-MEL-2 melanoma
  GI50: 2.27 µM
  TGI: 6.48 µM
A549 NSCLC
  GI50: 18.1 µM
  TGI: 37.9 µM
HS 578T breast
  GI50: 2.46 µM
  TGI: 6.26 µM
OVCAR-4 ovarian
  GI50: 1.42 µM
  TGI: 2.89 µM
NCI-H522 lung
  GI50: 1.89 µM
  TGI: 4.46 µM
U251 CNS
  GI50: 3.27 µM
  TGI: 11.8 µM
MOLT-4 leukemia
  GI50: 2.53 µM
  TGI: 5.68 µM
KM12 colon
  GI50: 13.3 µM
  TGI: 29.4 µM
IGROV1 ovarian
  GI50: 1.98 µM
  TGI: 3.89 µM
HOP-92 NSCLC
  GI50: 1.92 µM
  TGI: 3.95 µM
OVCAR-5 ovarian
  GI50: 3.14 µM
  TGI: 14.7 µM
OVCAR-3 ovarian
  GI50: 1.59 µM
  TGI: 3.03 µM
SK-MEL-28 melanoma
  GI50: 1.96 µM
  TGI: 3.71 µM
RPMI-8226 leukemia
  GI50: 2.14 µM
  TGI: 6 µM
SF-295 CNS
  GI50: 15.8 µM
  TGI: 29.9 µM
SW-620 colon
  GI50: 1.97 µM
  TGI: 4.03 µM
HL-60(TB) leukemia
  GI50: 1.53 µM
  TGI: 3.64 µM
UO-31 renal
  GI50: 1.44 µM
  TGI: 2.79 µM
SN12C renal
  GI50: 2.13 µM
  TGI: 5.4 µM
SF-539 CNS
  GI50: 1.75 µM
  TGI: 3.27 µM
MDA-MB-435
  GI50: 2.04 µM
  TGI: 4.29 µM
UACC-257 melanoma
  GI50: 1.57 µM
  TGI: 3 µM
NCI-H226 lung
  GI50: 2.02 µM
  TGI: 4.39 µM
PC-3 prostate
  GI50: 2.8 µM
  TGI: 10.3 µM
UACC-62 melanoma
  GI50: 2.62 µM
  TGI: 8.1 µM
SR leukemia
  GI50: 1.83 µM
  TGI: 4.62 µM
SNB-19 CNS
  GI50: 10.8 µM
  TGI: > 100 µM
HCT-15 colon
  GI50: 1.54 µM
  TGI: 3.33 µM
HOP-62 NSCLC
  GI50: 15.1 µM
  TGI: 29.6 µM
HCT-116 colon
  GI50: 1.6 µM
  TGI: 3.32 µM
MCF7 breast
  GI50: 1.89 µM
  TGI: 4.61 µM
